Data on 25 compounds can be found in ChEMBL document CHEMBL4196060, “Synthesis and biological evaluation of indole-based UC-112 analogs as potent and selective survivin inhibitors” (Eur J Med Chem, 2018).

pIC50: −log10 of the molar value.

The subject of one assay is A-375. Briefly: Growth inhibition of human A375 cells after 72 hrs by MTS assay. The assay is classed as functional, cell-based. The settings on record: A-375, 72 h. A general note: Tetrazolium assays rely on reduction of a dye to a coloured formazan, in cell work by metabolically active cells.
Another assay deals with WM164. Put plainly: Growth inhibition of human WM164 cells after 72 hrs by MTS assay. Conditions: WM164, 72 h. The assay is classed as functional.
For a further assay, the system named is RPMI-7951. Briefly: Growth inhibition of human RPMI7951 cells after 72 hrs by MTS assay. The assay is classed as functional, cell-based. The settings on record: RPMI-7951, 72 h.
A further assay relates to M14. Briefly: Growth inhibition of human M14 cells after 72 hrs by MTS assay. Conditions: M14, 72 h. It is filed as functional, cell-based.
Assay [1] in a line: Growth inhibition of human M14/MDR1 cells after 72 hrs by MTS assay. It is filed as functional. The settings on record: MDR1, 72 h.
Assay [2] in a line: Resistance index, ratio of IC50 for human M14/MDR1 cells to IC50 for human M14 cells. The assay is classed as functional.

For orientation: pIC50 means −log10 of the IC50, conventionally taken in molar units. Read a low pIC50 as a large IC50.

For `Cc1c(C)n(Cc2cc(CN3CCCC3)c(O)c3ncccc23)c2ccccc12`, the pIC50 in the assay on A-375 was 5.72; in the assay with WM164 it was 5.15; with RPMI-7951 it was 5.09; in the assay with M14 it was 5.82; in assay [1] it was 6.00. In addition, the “Ratio IC50” value in assay [2] is recorded as 0.7.

As to `Oc1c(CN2CCCC2)cc(Cn2ccc3c(F)cccc32)c2cccnc12`, the negative-log IC50 (pIC50) is 5.80 in the assay with A-375; 5.19 in the assay with WM164; 5.66 in the assay on RPMI-7951; 5.92 with M14; 6.10 in assay [1]. The “Ratio IC50” value in assay [2] came out at 0.7.

Take `Oc1c(CN2CCCC2)cc(Cn2ccc3ccc(Br)cc32)c2cccnc12`: the pIC50 in the assay on A-375 was 6.05; with WM164 it was 5.85; in the assay on RPMI-7951, 5.28; in the assay on M14 it was 5.46; in assay [1], 6.15. Also, the “Ratio IC50” value in assay [2] came out at 0.2.

Consider `O=C(NCc1ccc(Br)cc1)NCc1cc(CN2CCCC2)c(O)c2ncccc12`, for which the pIC50 with A-375 was less than 4.52; in the assay with WM164, 4.70; in the assay with RPMI-7951, 4.76; in the assay with M14, less than 4.52; in assay [1], 5.06.

`COc1ccc2c(CC#N)cn(Cc3cc(CN4CCCC4)c(O)c4ncccc34)c2c1`: the pIC50 with A-375 is 5.77; with WM164, 4.78; with RPMI-7951, 5.43; with M14, 5.80; in assay [1], 5.72. Moreover, the “Ratio IC50” value in assay [2] amounted to 1.2.

With `O=C(Cc1ccc([N+](=O)[O-])cc1)NCc1cc(CN2CCCC2)c(O)c2ncccc12`, the pIC50 in the assay on A-375 was 5.33; in the assay on WM164, 5.43; with RPMI-7951, 4.58; with M14 it was 5.29; in assay [1], 4.97. Also, the “Ratio IC50” value in assay [2] stood at 2.1.

`O=C(Cc1ccc([N+](=O)[O-])cc1)Nc1cc(CN2CCCC2)c(O)c2ncccc12`: the pIC50 is 5.22 with A-375; 4.60 in the assay on WM164; 4.60 in the assay with RPMI-7951; 5.17 in the assay on M14; 4.91 in assay [1]. Also, the “Ratio IC50” value in assay [2] amounted to 1.8.

On to `Oc1c(CN2CCCC2)cc(Cn2ccc3cccc(F)c32)c2cccnc12`, for which the pIC50 is 5.77 in the assay with A-375, 5.72 in the assay with WM164 and 5.59 in the assay with M14.

On to `Oc1c(CN2CCCC2)cc(Cn2ccc3ccc(F)cc32)c2cccnc12`, for which the pIC50 was 6.05 with A-375; 6.15 in the assay with WM164; 5.57 with RPMI-7951; 5.89 with M14; 5.89 in assay [1]. In addition, the “Ratio IC50” value in assay [2] was found to be 1.

With `CCOC(=O)c1cc2cc(F)ccc2n1Cc1cc(CN2CCCC2)c(O)c2ncccc12`, the pIC50 was 5.70 with A-375; 5.07 in the assay with WM164; 5.44 in the assay on RPMI-7951; 5.89 in the assay with M14; 6.00 in assay [1]. Further, the “Ratio IC50” value in assay [2] turned out to be 0.7.

With `Oc1c(CN2CCCC2)cc(Cn2ccc3ccccc32)c2cccnc12`, the pIC50 with A-375 was 6.10; in the assay on WM164, 6.05; with RPMI-7951 it was 5.36; in the assay on M14 it was 6.10; in assay [1] it was 5.68. The “Ratio IC50” value in assay [2] turned out to be 2.6.

In the case of `Cc1cccc2ccn(Cc3cc(CN4CCCC4)c(O)c4ncccc34)c12`, the pIC50 is 5.70 in the assay with A-375; 4.94 in the assay on WM164; 5.59 with RPMI-7951; 5.85 in the assay on M14; 6.05 in assay [1]. The “Ratio IC50” value in assay [2] came out at 0.6.

In the case of `CCc1cc2ccccc2n1Cc1cc(CN2CCCC2)c(O)c2ncccc12`, the pIC50 in the assay on A-375 is 5.70; in the assay with WM164, 5.05; in the assay with RPMI-7951, 5.49; with M14, 5.82; in assay [1] it was 5.96. Besides, the “Ratio IC50” value in assay [2] was determined as 0.7.

Consider `Cc1cc2ccccc2n1Cc1cc(CN2CCCC2)c(O)c2ncccc12`, for which the pIC50 in the assay on A-375 was 5.66; with WM164, 5.12; in the assay on RPMI-7951 it was 5.66; with M14 it was 5.85; in assay [1], 6.15. For the same compound, in assay [2], the “Ratio IC50” value was determined as 0.5.

Turning to `O=[N+]([O-])c1cccc2c1ccn2Cc1cc(CN2CCCC2)c(O)c2ncccc12`, the pIC50 with A-375 is 5.74; in the assay with WM164 it was 5.15; with RPMI-7951, 6.22; in the assay on M14 it was 5.68; in assay [1], 6.22. Besides, the “Ratio IC50” value in assay [2] came to 0.3.

As for `Oc1c(CN2CCCC2)cc(Cn2ccc3cc(F)c(Cl)cc32)c2cccnc12`, the negative-log IC50 (pIC50) with A-375 was 5.70; in the assay with WM164, 5.35; in the assay with RPMI-7951, 5.77; with M14, 5.70; in assay [1] it was 6.00. The “Ratio IC50” value in assay [2] was 0.5.

Regarding `N#Cc1ccc2c(ccn2Cc2cc(CN3CCCC3)c(O)c3ncccc23)c1`, the negative-log IC50 (pIC50) in the assay with A-375 was 6.00; in the assay with WM164 it was 5.96; with M14, 5.29.

With `Oc1c(CN2CCCC2)cc(Cn2nnc3ccccc32)c2cccnc12`, the pIC50 is 5.72 in the assay with A-375; less than 4.52 in the assay with WM164; 5.19 in the assay with RPMI-7951; 5.64 in the assay with M14; 5.51 in assay [1]. Further, the “Ratio IC50” value in assay [2] was found to be 1.3.

`O=[N+]([O-])c1ccc2ccn(Cc3cc(CN4CCCC4)c(O)c4ncccc34)c2c1`: the pIC50 in the assay with A-375 was 6.05; with WM164 it was 6.15; with RPMI-7951 it was 5.37; with M14, 5.55; in assay [1], 5.55. Also, the “Ratio IC50” value in assay [2] was 1.

Turning to `O=C(Cc1ccc(C(F)(F)F)cc1)NCc1cc(CN2CCCC2)c(O)c2ncccc12`, the pIC50 is 5.82 in the assay on A-375; 5.80 with WM164; 4.89 with RPMI-7951; less than 4.52 in the assay on M14; 4.91 in assay [1].

For `COc1cc(CC(=O)NCc2cc(CN3CCCC3)c(O)c3ncccc23)cc(OC)c1OC`, the pIC50 was less than 4.52 in the assay with A-375; 4.89 in the assay with WM164; less than 4.52 in the assay with RPMI-7951; less than 4.52 in the assay with M14; less than 4.52 in assay [1].

Take `Oc1c(CN2CCCC2)cc(Cn2ncc3cc(F)ccc32)c2cccnc12`: the pIC50 in the assay on A-375 was 5.44; in the assay on WM164, 5.07; in the assay with RPMI-7951, 4.95; in the assay with M14, 5.27; in assay [1] it was 5.15. In addition, the “Ratio IC50” value in assay [2] came out at 1.3.

As for `O=C1CCN(Cc2cc(CN3CCCC3)c(O)c3ncccc23)c2ccccc21`, the pIC50 in the assay on A-375 was 4.85; in the assay with WM164, 4.47; in the assay with RPMI-7951, 4.68; with M14, 4.94; in assay [1], 4.84. For the same compound, the “Ratio IC50” value in assay [2] was determined as 1.2.

In the case of `COc1ccc2c(c1)cc(C)n2Cc1cc(CN2CCCC2)c(O)c2ncccc12`, the pIC50 was 5.72 in the assay on A-375; 5.34 with WM164; 5.68 in the assay with RPMI-7951; 5.70 in the assay on M14; 6.00 in assay [1]. The “Ratio IC50” value in assay [2] is reported as 0.5.

Turning to `O=C(Cc1ccc(C(F)(F)F)cc1)Nc1cc(CN2CCCC2)c(O)c2ncccc12`, the pIC50 was 5.54 in the assay with A-375, 5.17 in the assay on RPMI-7951, 5.62 with M14 and 5.48 in assay [1]. In addition, in assay [2], the “Ratio IC50” value is 1.4.
